“And” between values parts separate entries of the source, which are not always exact repeats. Identical values can stand only once.
Assays:
[1] = target: T1, 5-hydroxytryptamine receptor 7 (Homo sapiens, UniProt P34969)
Description: Displacement of [3H]-LSD from human 5HT7 receptor by liquid scintillation counting

[2] = target: Sodium-dependent serotonin transporter (Homo sapiens, UniProt P31645)
Description: Displacement of [3H]-citalopram from human SERT by liquid scintillation counting

D(2) dopamine receptor [3] = target: T2, D(2) dopamine receptor (Homo sapiens, UniProt P14416); assay: Displacement of [3H]-N-methylspiperone from human dopamine D2 receptor at 10 uM by liquid scintillation counting
T2 sequence (P14416 whole entry): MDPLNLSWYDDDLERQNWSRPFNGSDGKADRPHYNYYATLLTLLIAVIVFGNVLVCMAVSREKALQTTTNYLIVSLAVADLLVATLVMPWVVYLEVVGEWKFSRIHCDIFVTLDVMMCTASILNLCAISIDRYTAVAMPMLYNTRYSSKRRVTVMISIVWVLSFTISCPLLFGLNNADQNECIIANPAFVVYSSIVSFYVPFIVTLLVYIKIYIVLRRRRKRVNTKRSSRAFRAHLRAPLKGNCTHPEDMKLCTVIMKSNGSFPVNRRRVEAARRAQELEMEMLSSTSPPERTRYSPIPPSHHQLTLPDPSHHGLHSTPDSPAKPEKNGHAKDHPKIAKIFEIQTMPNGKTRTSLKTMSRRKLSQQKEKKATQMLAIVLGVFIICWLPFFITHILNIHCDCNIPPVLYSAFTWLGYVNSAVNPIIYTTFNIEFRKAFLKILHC

D(4) dopamine receptor = target: T3, D(4) dopamine receptor (Homo sapiens, UniProt P21917)
T3 sequence (P21917 whole entry): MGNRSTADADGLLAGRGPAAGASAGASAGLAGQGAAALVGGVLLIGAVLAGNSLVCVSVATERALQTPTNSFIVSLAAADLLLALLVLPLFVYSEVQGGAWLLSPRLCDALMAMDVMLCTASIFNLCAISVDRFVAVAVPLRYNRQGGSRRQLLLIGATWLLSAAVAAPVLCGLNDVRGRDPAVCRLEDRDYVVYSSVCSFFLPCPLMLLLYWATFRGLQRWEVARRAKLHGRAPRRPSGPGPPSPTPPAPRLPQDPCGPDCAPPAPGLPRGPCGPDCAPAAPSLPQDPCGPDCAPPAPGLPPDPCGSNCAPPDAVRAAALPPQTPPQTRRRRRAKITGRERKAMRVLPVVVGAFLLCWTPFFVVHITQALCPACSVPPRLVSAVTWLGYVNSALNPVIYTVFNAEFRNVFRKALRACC

[4] = target: T4, 5-hydroxytryptamine receptor 2C (Homo sapiens) (UniProt P28335); assay: Displacement of [3H]-mesulergine from human 5HT2C receptor at 10 uM by liquid scintillation counting
T4 sequence (whole entry): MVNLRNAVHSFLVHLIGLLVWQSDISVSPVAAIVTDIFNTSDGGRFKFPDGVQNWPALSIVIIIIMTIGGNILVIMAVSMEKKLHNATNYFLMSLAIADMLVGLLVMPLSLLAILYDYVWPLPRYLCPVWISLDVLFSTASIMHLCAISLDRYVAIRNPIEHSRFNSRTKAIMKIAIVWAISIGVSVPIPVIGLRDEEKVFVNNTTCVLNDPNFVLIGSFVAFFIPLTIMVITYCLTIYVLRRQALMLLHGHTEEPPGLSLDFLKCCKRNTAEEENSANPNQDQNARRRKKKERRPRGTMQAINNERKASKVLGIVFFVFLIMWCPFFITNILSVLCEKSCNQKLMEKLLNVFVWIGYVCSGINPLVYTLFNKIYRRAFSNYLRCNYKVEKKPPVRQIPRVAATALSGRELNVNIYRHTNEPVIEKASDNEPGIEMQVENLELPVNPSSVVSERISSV

[5] = target: T5, 5-hydroxytryptamine receptor 1A (Homo sapiens, UniProt P08908)
T5 sequence (P08908 whole entry): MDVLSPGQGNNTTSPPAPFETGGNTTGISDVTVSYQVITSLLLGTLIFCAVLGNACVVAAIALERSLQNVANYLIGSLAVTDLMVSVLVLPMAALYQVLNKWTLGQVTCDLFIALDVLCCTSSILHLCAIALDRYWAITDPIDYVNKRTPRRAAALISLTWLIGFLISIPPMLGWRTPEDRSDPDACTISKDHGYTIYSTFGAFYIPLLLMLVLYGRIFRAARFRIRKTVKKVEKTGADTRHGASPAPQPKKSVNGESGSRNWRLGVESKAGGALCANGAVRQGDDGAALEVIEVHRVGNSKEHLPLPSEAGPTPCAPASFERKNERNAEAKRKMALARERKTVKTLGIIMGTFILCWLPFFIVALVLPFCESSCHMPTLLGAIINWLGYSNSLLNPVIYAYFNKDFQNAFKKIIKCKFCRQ

[6] = target: T6, 5-hydroxytryptamine receptor 2A (Homo sapiens, UniProt P28223)
T6 sequence (P28223 whole entry): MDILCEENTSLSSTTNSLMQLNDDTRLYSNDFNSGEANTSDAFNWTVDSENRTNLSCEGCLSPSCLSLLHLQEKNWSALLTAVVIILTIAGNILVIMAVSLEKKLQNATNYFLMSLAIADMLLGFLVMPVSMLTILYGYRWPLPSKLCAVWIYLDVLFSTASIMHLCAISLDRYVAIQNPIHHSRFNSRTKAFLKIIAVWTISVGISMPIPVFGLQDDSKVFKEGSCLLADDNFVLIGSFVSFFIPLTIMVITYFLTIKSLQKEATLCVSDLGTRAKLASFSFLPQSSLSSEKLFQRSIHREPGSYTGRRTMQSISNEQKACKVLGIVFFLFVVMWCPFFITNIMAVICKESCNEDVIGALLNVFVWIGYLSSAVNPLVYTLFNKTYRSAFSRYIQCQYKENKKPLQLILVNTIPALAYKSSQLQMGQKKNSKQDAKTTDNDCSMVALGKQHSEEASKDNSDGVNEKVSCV

[7] = target: T7, 5-hydroxytryptamine receptor 2C (Homo sapiens, UniProt P28335)
T7 sequence (P28335 whole entry): T4 sequence (whole entry)

D(2) dopamine receptor [8] = target: T2, D(2) dopamine receptor
D(3) dopamine receptor [9] = target: T8, D(3) dopamine receptor (Homo sapiens, UniProt P35462)
T8 sequence (P35462 whole entry): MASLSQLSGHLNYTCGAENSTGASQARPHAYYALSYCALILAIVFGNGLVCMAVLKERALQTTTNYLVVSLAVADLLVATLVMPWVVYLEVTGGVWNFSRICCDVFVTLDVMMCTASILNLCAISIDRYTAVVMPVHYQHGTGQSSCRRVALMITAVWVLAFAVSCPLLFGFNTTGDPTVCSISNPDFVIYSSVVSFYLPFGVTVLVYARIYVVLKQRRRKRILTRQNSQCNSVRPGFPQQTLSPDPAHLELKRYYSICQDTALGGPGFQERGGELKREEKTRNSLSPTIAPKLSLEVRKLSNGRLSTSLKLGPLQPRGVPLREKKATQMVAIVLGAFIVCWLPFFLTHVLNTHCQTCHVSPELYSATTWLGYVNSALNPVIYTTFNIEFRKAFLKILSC

D(3) dopamine receptor [10] = target: T8, D(3) dopamine receptor; assay: Displacement of [3H]-N-methylspiperone from human dopamine D3 receptor at 10 uM by liquid scintillation counting
[11] = target: T9, 5-hydroxytryptamine receptor 1A (Homo sapiens) (UniProt P08908); assay: Displacement of [3H]-8-OH-DPAT from human 5HT1A receptor at 10 uM by liquid scintillation counting
T9 sequence (whole entry): T5 sequence (P08908 whole entry)

[12] = target: T1, 5-hydroxytryptamine receptor 7; assay: Displacement of [3H]-LSD from human 5HT7 receptor at 10 uM by liquid scintillation counting
[13] = target: T6, 5-hydroxytryptamine receptor 2A; assay: Displacement of [3H]-mesulergine from human 5HT2A receptor at 10 uM by liquid scintillation counting

T1 sequence (P34969 whole entry): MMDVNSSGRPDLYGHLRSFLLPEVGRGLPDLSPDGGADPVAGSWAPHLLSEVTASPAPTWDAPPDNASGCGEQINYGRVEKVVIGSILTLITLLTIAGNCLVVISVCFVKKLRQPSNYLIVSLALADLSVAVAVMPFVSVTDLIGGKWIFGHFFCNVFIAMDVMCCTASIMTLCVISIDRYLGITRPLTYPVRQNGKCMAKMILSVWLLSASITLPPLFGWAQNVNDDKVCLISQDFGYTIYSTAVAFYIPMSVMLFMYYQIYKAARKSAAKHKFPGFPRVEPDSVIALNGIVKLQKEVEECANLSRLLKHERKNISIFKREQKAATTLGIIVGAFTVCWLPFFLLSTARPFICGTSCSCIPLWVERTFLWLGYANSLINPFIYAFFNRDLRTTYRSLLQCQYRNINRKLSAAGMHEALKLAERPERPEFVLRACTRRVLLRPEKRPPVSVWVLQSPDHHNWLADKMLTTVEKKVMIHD
Sodium-dependent serotonin transporter, sequence (P31645 whole entry): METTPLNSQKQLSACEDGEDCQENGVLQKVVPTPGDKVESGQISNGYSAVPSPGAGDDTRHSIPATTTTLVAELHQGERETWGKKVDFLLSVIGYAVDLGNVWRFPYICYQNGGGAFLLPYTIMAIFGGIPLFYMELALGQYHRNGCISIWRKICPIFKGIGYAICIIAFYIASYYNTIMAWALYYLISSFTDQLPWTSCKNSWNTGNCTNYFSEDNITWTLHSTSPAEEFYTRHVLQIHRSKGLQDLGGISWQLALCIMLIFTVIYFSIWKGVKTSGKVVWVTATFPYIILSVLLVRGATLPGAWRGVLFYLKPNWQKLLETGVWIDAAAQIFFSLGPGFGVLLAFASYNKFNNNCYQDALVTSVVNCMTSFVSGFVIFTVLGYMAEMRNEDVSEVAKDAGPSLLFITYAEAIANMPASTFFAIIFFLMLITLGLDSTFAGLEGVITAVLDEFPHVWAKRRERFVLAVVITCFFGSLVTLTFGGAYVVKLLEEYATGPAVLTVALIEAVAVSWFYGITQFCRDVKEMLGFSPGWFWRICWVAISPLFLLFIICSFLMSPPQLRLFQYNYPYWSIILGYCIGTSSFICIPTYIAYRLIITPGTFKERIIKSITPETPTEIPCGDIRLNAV

O=C1c2ccc(F)cc2CC1CCN1CCCN(c2ccc(Cl)cc2)CC1 (stereo not drawn)
Ki [1]: 72 nM
Ki [2]: 24 nM

Fc1ccc(CCCCN2CCN(c3cccnc3)CC2)cc1
Ki [1]: 267 nM
inhibition (D(2) dopamine receptor [3]): 50%
Ki (D(4) dopamine receptor): 16 nM
inhibition [4]: 50%
Ki [5]: 18 nM
Ki [6]: 338 nM

Fc1ccc2c(c1)CC(CCN1CCCN(c3ccccn3)CC1)C2 (stereo not drawn)
Ki [1]: 267 nM
Ki [2]: 64 nM
Ki [7]: 963 nM
Ki (D(2) dopamine receptor [8]): 599 nM
Ki (D(4) dopamine receptor): 104 nM
Ki (D(3) dopamine receptor [9]): 774 nM
Ki [5]: 615 nM and 589 nM
Ki [6]: 43 nM

O=C1c2ccc(F)cc2CC1CCN1CCCN(c2ccccn2)CC1 (stereo not drawn)
Ki [1]: 58 nM
Ki [2]: 949 nM and 933 nM
Ki (D(2) dopamine receptor [8]): 649 nM
Ki (D(4) dopamine receptor): 191 nM
Ki (D(3) dopamine receptor [9]): 2290 nM
inhibition [4]: 50%
Ki [5]: 886 nM
Ki [6]: 59 nM

Fc1ccc(CCCCN2CCN(c3ccccn3)CC2)cc1
inhibition [4]: 50%

O=C(CCCN1CCN(c2cccnc2)CC1)c1ccc(F)cc1
Ki [1]: 147 nM and 135 nM
Ki (D(2) dopamine receptor [8]): 1170 nM
Ki (D(4) dopamine receptor): 30 nM
Ki (D(3) dopamine receptor [9]): 140 nM
inhibition [4]: 50%
Ki [5]: 97 nM
Ki [6]: 305 nM

Fc1ccc(CCCCN2CCN(c3cccc(-c4ccccc4)n3)CC2)cc1
Ki [1]: 160 nM
Ki [2]: > 10000 nM
Ki [7]: 2960 nM
Ki (D(2) dopamine receptor [8]): 641 nM
Ki (D(4) dopamine receptor): 84 nM
Ki (D(3) dopamine receptor [9]): 58 nM
Ki [5]: 155 nM
Ki [6]: 261 nM

O=C(CCCN1CCCN(c2ccccn2)CC1)c1ccc(F)cc1
Ki [1]: 569 nM and 1550 nM
Ki [7]: 337 nM
Ki (D(2) dopamine receptor [8]): 181 nM
Ki (D(4) dopamine receptor): 257 nM
Ki (D(3) dopamine receptor [9]): 3450 nM
Ki [5]: 1960 nM and 1910 nM
Ki [6]: 1.2 nM

Fc1ccc(CCCCN2CCN(c3ccncc3)CC2)cc1
inhibition (D(2) dopamine receptor [3]): 50%
inhibition (D(3) dopamine receptor [10]): 50%
inhibition [11]: 50%
inhibition [12]: 50%
Ki (D(4) dopamine receptor): 2050 nM
inhibition [4]: 50%
inhibition [13]: 50%

Cc1ccc(N2CCN(CCCCc3ccc(F)cc3)CC2)nc1
Ki [1]: 60 nM
Ki [2]: 2990 nM
Ki [7]: 1610 nM
Ki [5]: 92 nM

Fc1ccc(CCCCN2CCN(c3ccc(-c4ccccc4)cn3)CC2)cc1
Ki [1]: > 10000 nM
Ki [2]: 2670 nM
Ki [7]: > 10000 nM
Ki (D(2) dopamine receptor [8]): > 10000 nM
Ki (D(4) dopamine receptor): 2260 nM
Ki (D(3) dopamine receptor [9]): 2090 nM
Ki [5]: 1460 nM
Ki [6]: 147 nM

O=C(CCCN1CCCN(c2ccc(Cl)cn2)CC1)c1ccc(F)cc1
Ki [1]: 214 nM
Ki [2]: 37 nM
Ki [7]: 392 nM
Ki (D(2) dopamine receptor [8]): 41 nM
Ki (D(4) dopamine receptor): 37 nM
Ki (D(3) dopamine receptor [9]): 26 nM
Ki [5]: 259 nM
Ki [6]: 8.9 nM

O=C(CCCN1C2CCC1CN(c1ccc(Cl)cn1)C2)c1ccc(F)cc1
Ki [1]: 335 nM
Ki [2]: 241 nM
Ki [7]: 1360 nM
Ki (D(2) dopamine receptor [8]): 1250 nM
Ki (D(4) dopamine receptor): 119 nM
Ki (D(3) dopamine receptor [9]): 1010 nM
Ki [5]: 78 nM
Ki [6]: 51 nM

Fc1ccc(CCCCN2C3CCC2CN(c2ccc(Cl)cn2)C3)cc1
Ki [1]: 339 nM
inhibition (D(2) dopamine receptor [3]): 50%
Ki [2]: 158 nM
Ki (D(4) dopamine receptor): 44 nM
Ki (D(3) dopamine receptor [9]): 840 nM
inhibition [4]: 50%
Ki [5]: 94.2 nM
Ki [6]: 94 nM

O=C1c2ccc(F)cc2CC1CCN1CCCN(c2ccc(Cl)cn2)CC1 (stereo not drawn)
Ki [1]: 58 nM
Ki [2]: 24 nM
Ki [7]: 355 nM
Ki (D(2) dopamine receptor [8]): 364 nM
Ki (D(4) dopamine receptor): 36 nM
Ki (D(3) dopamine receptor [9]): 125 nM
Ki [5]: 209 nM
Ki [6]: 13 nM
